Source: PubChem BioAssay (NCI)
Where “and” joins values, the source holds several entries; their conditions need not be identical. Equal entries are not always repeated.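 The compound was tested at five concentrations on cells cultured in 96-well plates, with a 48-hour exposure period. At the TGI there is no net growth.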 Where a SMILES comes first, the peptide text is derived from it. The star is where a group is joined. Cbz = O=C(OCc1ccccc1)*

How the values were obtained:
Experiment in all cases: inhibition of tumour cell growth, NCI panel, 48 h
MDA-MB-231 breast = system: MDA-MB-231 breast
NCI/ADR-RES ovarian = system: NCI/ADR-RES ovarian
UACC-62 melanoma = system: UACC-62 melanoma
RPMI-8226 leukemia = system: RPMI-8226 leukemia
SNB-75 CNS = system: SNB-75 CNS
K-562 leukemia = system: K-562 leukemia
OVCAR-8 ovarian = system: OVCAR-8 ovarian
A498 renal = system: A498 renal
MDA-MB-435 = system: MDA-MB-435
UO-31 renal = system: UO-31 renal
IGROV1 ovarian = system: IGROV1 ovarian

Row | SMILES | TGI (MDA-MB-231 breast) | TGI (NCI/ADR-RES ovarian) | TGI (UACC-62 melanoma) | TGI (RPMI-8226 leukemia) [µM] | TGI (SNB-75 CNS) | TGI (K-562 leukemia) [µM] | TGI (OVCAR-8 ovarian) | TGI (A498 renal) [µM] | TGI (MDA-MB-435) | TGI (UO-31 renal) | TGI (IGROV1 ovarian)
1 | C#CCOC(=O)c1ccccc1OC(C)=O | > 100 µM | > 100 µM | > 100 µM | > 100 | > 100 µM | > 100 | > 100 µM | > 100 | > 100 µM | > 100 µM | > 100 µM
2 | CSc1c(C#N)c2n(c3ccccc3[n+]2C)c2ncccc12 | 46.9 µM | 85.5 µM | 38.9 µM | > 100 | 50.4 µM | > 100 | 73.4 µM | 84.6 | > 100 µM | 50.1 µM | > 100 µM
3 | CC1(C)CC(=O)c2c(nc3ccc4ccccc4c3c2-c2ccc(NC(=O)CCCCC(=O)Nc3ccc(-c4c5c(nc6ccc7ccccc7c46)CC(C)(C)CC5=O)cc3)cc2)C1 | > 100 µM | > 100 µM | > 100 µM | > 100 | > 100 µM | > 100 | > 100 µM | > 100 | > 100 µM | > 100 µM | > 100 µM
4 | CN1C[C@@H]2CCCN2P1Oc1cccc2cccnc12 (stereo not given in full) | > 100 µM | 62.3 µM | > 100 µM | 66.2 | > 100 µM | > 100 | > 100 µM | > 100 | > 100 µM | > 100 µM | > 100 µM
5 | CC(C)(C)/C(O)=C\c1nc2cc(C(F)(F)F)ccc2[nH]c1=O | > 100 µM | > 100 µM | > 100 µM | > 100 | > 100 µM | > 100 | > 100 µM | > 100 | > 100 µM | > 100 µM | > 100 µM
6 | CC(=O)c1cn(-c2ccc(Cl)cc2)c(=O)c2c(N)n[nH]c12 | > 100 µM | > 100 µM | > 100 µM | > 100 | > 100 µM | > 100 | > 100 µM | > 100 | > 100 µM | > 100 µM | > 100 µM
7 | Cc1ccc(C2=Nc3c(N)nc(N)nc3NC(c3ccccc3)C2)cc1 (stereo not given) | 19.7 µM and 28.9 µM | 16.1 µM and 18.2 µM | 22.7 µM and 26 µM | > 100 | 29.8 µM and 27.4 µM | > 100 | 29.3 µM and 28.8 µM | 23.6 | 7.25 µM and 6.01 µM | 25.2 µM and 25.6 µM | 21.2 µM and 21.6 µM
8 | CCOC(=O)C(C)NC(=O)C(C)NC(=O)C(C)NC(=O)C(C)NC(=O)C(C)NC(=O)C(C)NC(=O)C(C)NC(=O)OCc1ccccc1 (stereo not given) (Cbz-AAAAAAA-OEt; configuration not given here) | > 100 µM | > 100 µM | > 100 µM | > 100 | > 100 µM | > 100 | > 100 µM | > 100 | > 100 µM | > 100 µM | > 100 µM
9 | Cc1nc2c(-c3ccccc3)[nH]c(C)c2c(=O)o1 | > 100 µM | > 100 µM | > 100 µM | > 100 | > 100 µM | > 100 | > 100 µM | > 100 | > 100 µM | > 100 µM | > 100 µM
10 | COc1cc2c(c(OC)c1OC)C(=O)CC2N (stereo not given) | > 100 µM | > 100 µM | > 100 µM | > 100 | > 100 µM | > 100 | > 100 µM | > 100 | > 100 µM | > 100 µM | > 100 µM
11 | CN(/N=C\c1ccc2ccccc2c1)C1=NCCCCN1 | 64.5 µM | > 100 µM | 64.2 µM | 56.9 | 59.3 µM | 42.5 | > 100 µM | 56.6 | 38.1 µM | 55.8 µM | > 100 µM
12 | Clc1nc2c(-c3cccs3)ncnc2n1Cc1ccccc1 | > 81.5 µM | > 100 µM | > 100 µM | 70.6 | 58.7 µM | > 100 | > 100 µM | 55.6 | > 100 µM | 1.09 µM | > 100 µM
13 | C[N+]1(C)CN(c2ccccc2)C2(CCN(CCCC(=O)c3cccs3)CC2)C1=O | > 100 µM | > 100 µM | > 100 µM | > 100 | > 100 µM | > 100 | > 100 µM | > 100 | > 100 µM | > 100 µM | > 100 µM
14 | C[C@@H]1OC(=O)C[C@H]2CC(=O)N(CCc3cn(S(=O)(=O)C(F)(F)F)c4ccccc34)C[C@@H]21 | > 100 µM | > 100 µM | > 100 µM | > 100 | > 100 µM | > 100 | > 100 µM | > 100 | > 100 µM | > 100 µM | > 100 µM
15 | COC(=O)CCCCC/C(=C\C(=O)C(Cl)(Cl)Cl)OC | > 100 µM | > 100 µM | > 100 µM | 60.9 | 72.7 µM | > 100 | 73.6 µM | > 100 | 64.7 µM | > 100 µM | 32.2 µM
